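Protocol summary: plate cells (96-well), add compound at 5 concentrations, incubate 48 h, interpolate endpoints linearly. At the GI50, growth is halved.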 Calls of active or inactive are those of the source. No stated cut-off is given here; in the data, active = GI50 up to about 1.1 µM and inactive = higher.
Key:
Test in all cases: inhibition of tumour cell growth, NCI panel, 48 h
OVCAR-8 = tested on: OVCAR-8
ACHN = tested on: ACHN
RXF 393 = tested on: RXF 393
U-251 = tested on: U-251
NCI-H226 = tested on: NCI-H226
UO-31 = tested on: UO-31
UACC-62 = tested on: UACC-62
NCI-H23 = tested on: NCI-H23
SF-539 = tested on: SF-539
IGROV-1 = tested on: IGROV-1
T47D = tested on: T47D
NCI-H522 = tested on: NCI-H522
MDA-N = tested on: MDA-N
A498 = tested on: A498
OVCAR-3 = tested on: OVCAR-3
SK-MEL-5 = tested on: SK-MEL-5
786-0 = tested on: 786-0
KM12 = tested on: KM12
A549 = tested on: A549
DMS-273 = tested on: DMS-273

| Structure (SMILES) | GI50 (OVCAR-8) | GI50 (ACHN) | GI50 (RXF 393) | GI50 (U-251) | GI50 (NCI-H226) | GI50 (UO-31) | GI50 (UACC-62) | GI50 (NCI-H23) | GI50 (SF-539) | GI50 (IGROV-1) | GI50 (T47D) | GI50 (NCI-H522) | GI50 (MDA-N) | GI50 (A498) | GI50 (OVCAR-3) | GI50 (SK-MEL-5) | GI50 (786-0) | GI50 (KM12) | GI50 (A549) | GI50 (DMS-273) |
| --- | --- | --- | --- | --- | --- | --- | --- | --- | --- | --- | --- | --- | --- | --- | --- | --- | --- | --- | --- | --- |
| Cc1cccc2c(N)c3cccc(C(=O)NCC[N+](C)(C)Cc4sccc4[N+](=O)[O-])c3nc12 | 9.84 µM (inactive) | 3.78 µM (inactive) | 12.9 µM (inactive) | 6.47 µM (inactive) | 6.18 µM (inactive) | 20.5 µM (inactive) | 13.6 µM (inactive) | 3.94 µM (inactive) | 2.83 µM (inactive) | 2.71 µM (inactive) | 36.6 µM (inactive) | 2.64 µM (inactive) | 19.6 µM (inactive) | 27 µM (inactive) | 19.5 µM (inactive) | 5.21 µM (inactive) | 5.56 µM (inactive) | 9.68 µM (inactive) | 0.491 µM (active) |  |
| C=C1C(=O)C23CC1C[C@H](OC(C)=O)[C@H]2C1(C)C(OC(C)=O)C[C@H](O)C(C)(C)[C@H]1C(=O)[C@@H]3OC(C)=O (stereo partly drawn) | 2.95 µM (inactive) | 4.98 µM (inactive) | 3.09 µM (inactive) | 15 µM (inactive) | 23.2 µM (inactive) | 4.93 µM (inactive) | 4.86 µM (inactive) | 3.58 µM (inactive) | 2.69 µM (inactive) | 12.4 µM (inactive) | 2.72 µM (inactive) | 1.57 µM (inactive) | 1.69 µM (inactive) | 16.2 µM (inactive) | 5.71 µM (inactive) | 13.9 µM (inactive) | 3.28 µM (inactive) | 10.9 µM (inactive) | 17.9 µM (inactive) |  |
| COc1ccc2[nH]c(C(=O)N3CC(CCl)c4ccc(N)cc43)cc2c1 (stereo not drawn) | 0.223 µM (active) | 0.0728 µM (active) | 0.09 µM (active) | 0.313 µM (active) | 0.32 µM (active) | 0.145 µM (active) | 0.141 µM (active) | 0.0726 µM (active) | 0.211 µM (active) | 0.175 µM (active) | 0.455 µM (active) | 0.0161 µM (active) | 0.144 µM (active) | 0.0789 µM (active) | 0.27 µM (active) | 0.0451 µM (active) | 0.233 µM (active) | 0.156 µM (active) | 0.0964 µM (active) |  |
| CON(C)C(=O)CNC(=O)OCC1c2ccccc2-c2ccccc21 | > 100 µM (inactive) | > 100 µM (inactive) | > 100 µM (inactive) | 98.4 µM (inactive) | > 100 µM (inactive) | 63.2 µM (inactive) | > 100 µM (inactive) | > 100 µM (inactive) | > 100 µM (inactive) | > 100 µM (inactive) | 68.4 µM (inactive) | > 100 µM (inactive) | > 100 µM (inactive) | 57.5 µM (inactive) | > 100 µM (inactive) | 84.5 µM (inactive) | > 100 µM (inactive) | > 100 µM (inactive) | > 100 µM (inactive) |  |
| O=c1c2ccccc2n2c(-c3ccc(O)cc3)nnc2n1-c1ccccc1 | 30.8 µM (inactive) | 16.1 µM (inactive) | 20.5 µM (inactive) | 17.2 µM (inactive) | 27 µM (inactive) | 3.72 µM (inactive) | 19.6 µM (inactive) | 20.3 µM (inactive) | 18 µM (inactive) | 18.1 µM (inactive) | 13.4 µM (inactive) | 18.2 µM (inactive) | 15.7 µM (inactive) | 13 µM (inactive) | 18.2 µM (inactive) | 18.5 µM (inactive) | 17.9 µM (inactive) | 49.2 µM (inactive) | 20.5 µM (inactive) |  |
| Cc1cccc2c1Sc1ccccc1C2NC(=O)CCN(C)C (stereo not drawn) | > 100 µM (inactive) | > 100 µM (inactive) | > 100 µM (inactive) | > 100 µM (inactive) | > 100 µM (inactive) | > 100 µM (inactive) | > 100 µM (inactive) | > 100 µM (inactive) | > 100 µM (inactive) | > 100 µM (inactive) |  |  |  |  |  | > 100 µM (inactive) | > 10 µM (inactive) |  | > 100 µM (inactive) | > 100 µM (inactive) |
| CCCCCC(=O)OC[n+]1cccc(-c2c(COC(=O)NC(C)C)c(COC(=O)NC(C)C)c3n2CCC3)c1 | 20.2 µM (inactive) | 23.1 µM (inactive) | 26.4 µM (inactive) | > 61.5 µM (inactive) | > 64.4 µM (inactive) | 33.4 µM (inactive) | 23.4 µM (inactive) | 28.8 µM (inactive) | 27.9 µM (inactive) | > 34.2 µM (inactive) | > 61.8 µM (inactive) | 15.6 µM (inactive) | > 100 µM (inactive) | 15.9 µM (inactive) | 54.1 µM (inactive) | 40.6 µM (inactive) | 30.7 µM (inactive) | > 100 µM (inactive) | 70.5 µM (inactive) |  |

Reference: ChEMBL document CHEMBL1201862, “PubChem BioAssay data set” (2004)
